Data from the supplement of paper PMC8920030.

What was measured:
Details in all cases: growth mode: biofilm, 24 h; exposure time: 24 h
tobramycin [1] = compound: T1, NC[C@H]1O[C@H](O[C@H]2[C@H](O)[C@@H](O[C@H]3O[C@H](CO)[C@@H](O)[C@H](N)[C@H]3O)[C@H](N)C[C@@H]2N)[C@H](N)C[C@@H]1O [tobramycin]; assay: minimum concentration of killing, 1-log CFU reduction of biofilm (MCK90); higher = more biofilm tolerance
Protocol: (§1)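 Clinical P. aeruginosa isolates were grown as static biofilms for 24 h at 37 °C in LB in half-area 96-well plates, then exposed for 24 h to tobramycin at 1, 4, 16, 64, 256 or […]. Surviving CFU were counted by spotting serial dilutions. MCK is the lowest tested concentration giving the stated log reduction in CFU versus an untreated control; '>1024' means the reduction was not reached at the top dose, and 1 is the lowest dose tested (≤1).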

colistin [2] = compound: T2, CCC(C)CCCC(=O)N[C@@H](CCN)C(=O)N[C@H](C(=O)N[C@@H](CCN)C(=O)N[C@H]1CCNC(=O)[C@H]([C@@H](C)O)NC(=O)[C@H](CCN)NC(=O)[C@H](CCN)NC(=O)[C@H](CC(C)C)NC(=O)[C@@H](CC(C)C)NC(=O)[C@H](CCN)NC1=O)[C@@H](C)O [colistin]; assay: as above
Protocol: (§2)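 Clinical P. aeruginosa isolates were grown as static biofilms for 24 h at 37 °C in LB in half-area 96-well plates, then exposed for 24 h to colistin at 1, 4, 16, 64, 256 or […]. Surviving CFU were counted by spotting serial dilutions. MCK is the lowest tested concentration giving the stated log reduction in CFU versus an untreated control; '>1024' means the reduction was not reached at the top dose, and 1 is the lowest dose tested (≤1).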

tobramycin [3] = compound: T1, tobramycin; assay: minimum concentration eradicating biofilm below detection limit (MCK-E); higher = more biofilm tolerance
Protocol: as §1

colistin [4] = compound: T2, colistin; assay: as above
Protocol: as §2

colistin [5] = compound: T2, colistin; assay: minimum concentration of killing, 4-log CFU reduction of biofilm (MCK99.99); higher = more biofilm tolerance
Protocol: as §2

tobramycin [6] = compound: T1, tobramycin; assay: as above
Protocol: as §1

colistin [7] = compound: T2, colistin; assay: minimum concentration of killing, 2-log CFU reduction of biofilm (MCK99); higher = more biofilm tolerance
Protocol: as §2

tobramycin [8] = compound: T1, tobramycin; assay: as above
Protocol: as §1

Row | Test System | minimum concentration of killing (tobramycin [1]) [µg/mL] | minimum concentration of killing (colistin [2]) [µg/mL] | minimum concentration eradicating biofilm below detection limit (tobramycin [3]) [µg/mL] | minimum concentration eradicating biofilm below detection limit (colistin [4]) [µg/mL] | minimum concentration of killing (colistin [5]) [µg/mL] | minimum concentration of killing (tobramycin [6]) [µg/mL] | minimum concentration of killing (colistin [7]) [µg/mL] | minimum concentration of killing (tobramycin [8]) [µg/mL]
1 | Pseudomonas aeruginosa clinical isolate F1706 | 4 | 256 | 256 | 256 | 256 | 16 | 256 | 16
2 | Pseudomonas aeruginosa clinical isolate F1720 | 4 | ≤ 1 | > 1020 | 256 | 256 | 1020 | 64 | 64
3 | Pseudomonas aeruginosa clinical isolate F1727 | 4 | 256 | 1020 | 256 | 256 | 1020 | 256 | 4
4 | Pseudomonas aeruginosa clinical isolate F1757 | ≤ 1 | 64 | > 1020 | 256 | 64 | > 1020 | 64 | 64
5 | Pseudomonas aeruginosa clinical isolate F1758 | 16 | 64 | 1020 | 256 | 256 | 1020 | 256 | 256
6 | Pseudomonas aeruginosa clinical isolate F1759 | ≤ 1 | 64 | 256 | 256 | 256 | 64 | 256 | 4
7 | Pseudomonas aeruginosa clinical isolate F1764 | 16 | 16 | > 1020 | 64 | 64 | 1020 | 64 | 64
8 | Pseudomonas aeruginosa clinical isolate F1775 | ≤ 1 | 16 | 1020 | 256 | 256 | 16 | 256 | ≤ 1
9 | Pseudomonas aeruginosa clinical isolate F1800 | ≤ 1 | 16 | 1020 | 1020 | 1020 | 256 | 256 | ≤ 1
10 | Pseudomonas aeruginosa clinical isolate F1823 | 4 | 64 | > 1020 | 1020 | 256 | > 1020 | 256 | 64
11 | Pseudomonas aeruginosa clinical isolate F1856 | 256 | 4 | 1020 | 64 | 64 | 1020 | 16 | 1020
12 | Pseudomonas aeruginosa clinical isolate F1862 | 64 | 256 | 256 | 256 | 256 | 256 | 256 | 256
13 | Pseudomonas aeruginosa clinical isolate F1864 | 1020 | 256 | > 1020 | 1020 | 256 | 1020 | 256 | 1020
14 | Pseudomonas aeruginosa clinical isolate F1880 | 64 | 256 | 1020 | 256 | 256 | 1020 | 256 | 1020
